Data as given in BindingDB's records for doi:10.7270/Q2XD103V (Vanderbilt Screening Center for GPCRs, Ion Channels and …, 2010).

Molecular target: T1, Muscarinic acetylcholine receptor M4 (Rattus norvegicus, UniProt P08485)
T1 sequence (P08485 whole entry): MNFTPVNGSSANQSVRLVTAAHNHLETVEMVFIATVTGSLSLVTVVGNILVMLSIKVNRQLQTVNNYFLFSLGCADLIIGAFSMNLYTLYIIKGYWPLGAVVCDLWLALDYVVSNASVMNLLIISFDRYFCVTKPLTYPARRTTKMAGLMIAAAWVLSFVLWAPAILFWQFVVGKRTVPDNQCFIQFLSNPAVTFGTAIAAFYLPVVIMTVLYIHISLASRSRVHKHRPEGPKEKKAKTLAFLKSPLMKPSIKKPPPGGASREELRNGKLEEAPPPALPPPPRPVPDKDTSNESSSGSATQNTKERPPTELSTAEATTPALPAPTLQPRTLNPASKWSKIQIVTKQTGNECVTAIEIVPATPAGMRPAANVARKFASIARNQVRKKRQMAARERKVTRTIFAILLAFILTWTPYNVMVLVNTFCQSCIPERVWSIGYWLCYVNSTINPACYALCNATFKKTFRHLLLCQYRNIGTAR
Assay: M4 receptor positive allosteric modulators, SAR follow-up, cell-based, rat M4, analogs (AID 1938)

SMILES: Cc1cc(C)c2c(N)c(C(=O)NCc3ccc4c(c3)OCO4)sc2n1 [3-amino-4,6-dimethyl-N-piperonyl-thieno[2,3-b]pyridine-2-carboxamide]
- EC50: 0.403 µM

SMILES: Cc1cc(OCc2ccncc2)nc2sc(C(=O)NCc3cccc(F)c3F)c(N)c12 [3-amino-N-(2,3-difluorobenzyl)-4-methyl-6-(4-pyridylmethoxy)thieno[2,3-b]pyridine-2-carboxamide]
- EC50: 1.67 µM

SMILES: COc1ccc(CNC(=O)c2sc3nc(OCc4ccncc4)cc(C)c3c2N)cc1 [3-amino-4-methyl-N-p-anisyl-6-(4-pyridylmethoxy)thieno[2,3-b]pyridine-2-carboxamide]
- EC50: 1.96 µM
